Source: patent US11498915B2, “TrkA Inhibitor” (Eli Lilly and Company, priority 2020, dated 2022)
Blank lines part the entries; values can stand above or below the compound they belong to.

How the values were obtained:
hTrkA [1] = biological target: T1, hTrkA (Homo sapiens, UniProt P04629); assay: hTrk kinase TR-FRET assay (headed Binding Assays), hTrkA kinase domain; assay type: biochemical; set-up: hTrkA, aa: 441-796; settings: hTrkA kinase domain aa 441-796, N = 4, read-out: Relative IC50 hTrkA, Binding Assays
From the text: (§1) Human Tropomyosin Receptor Kinase (hTrkA, hTrkB, hTrkC) Assays to Examine hTrk Kinase Inhibitors
(§2) The reaction of non-phosphorylated hTrk kinase domains (hTrkA, aa: 441-796, hTrkB, aa: 526-838 or hTrkC, aa: 510-825) with a fluorescein-labeled poly-GT substrate (poly-GT, Invitrogen) generates a fluorescein-labeled phosphorylated product. Binding of the terbium-labeled antibody (Invitrogen) to the phosphorylated tyrosine product brings the terbium and fluorescein into proximity, resulting in an increase in time-resolved fluorescence resonance energy transfer (TR-FRET). In the presence of an inhibitor, formation of phosphorylated product is reduced, and the TR-FRET value is decreased.
(§3) Inhibition of hTrk kinase activity: The activity of human tropomyosin receptor hTrk kinase is quantitated using TR-FRET technology (Invitrogen) as per vendor instructions. Briefly, compounds for dose-response studies are serially diluted in dimethyl sulfoxide (1:2 for 20 concentrations) using an acoustic dispensing instrument Echo Access (Labcyte) and dispensed into ProxiPlate-384 plus plates (PerkinElmer). […] EDTA and terbium-labeled antibody are added and plates are incubated at RT for one hour after which the TR-FRET signal is detected using an ENVISION® plate reader (Perkin-Elmer). The ratio of fluorescence at 520 to 495 nm is calculated. […]
Target sequence in this assay (P04629 441-796): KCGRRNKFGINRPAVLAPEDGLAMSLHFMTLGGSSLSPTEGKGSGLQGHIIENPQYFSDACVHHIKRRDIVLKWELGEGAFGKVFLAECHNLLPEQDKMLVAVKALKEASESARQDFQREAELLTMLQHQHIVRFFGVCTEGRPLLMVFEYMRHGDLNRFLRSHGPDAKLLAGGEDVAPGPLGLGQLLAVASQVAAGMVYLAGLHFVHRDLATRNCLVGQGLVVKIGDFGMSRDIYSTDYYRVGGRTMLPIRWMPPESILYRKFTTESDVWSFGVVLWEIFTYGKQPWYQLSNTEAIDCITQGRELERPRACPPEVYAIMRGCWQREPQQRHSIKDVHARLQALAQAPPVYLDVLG

hTrkA [2] = biological target: T1, hTrkA; assay: PathHunter cell-based assay, inhibition of SH2 domain protein recruitment, hTrkA-p75 U2OS cells; set-up: host or cells: U2OS (human bone osteosarcoma epithelial cells), PathHunter hTrkA-p75
From the text: (§4) In Vitro Inhibition of SH2 Domain Protein Recruitment in Human Bone Osteosarcoma Epithelial Cells by Human Tropomyosin Receptor Kinase (hTrk) Inhibitors
(§5) Activation of hTrkA, TrkB or TrkC is examined using PathHunter® (DiscoverX) enzyme fragment complementation technology. In this approach, one fragment of β-galactosidase (β-gal) ProLink (PK) is fused to the C-terminal of the Trk receptor and co-expressed with a phosphotyrosine SH2 domain protein fused with the remaining fragment of β-gal, Enzyme Acceptor (EA), in human Bone Osteosarcoma Epithelial (hU2OS) cells also expressing the p75 neurotrophic receptor (DiscoverX). Activation of hTrk receptors by agonists results in receptor phosphorylation. The SH2-EA fusion protein binds the phosphorylated hTrk receptor resulting in complementation of PK and EA to form an active β-gal enzyme. β-gal enzymatic activity is quantitatively measured using a chemiluminescent substrate in the PathHunter® detection kit (DiscoverX). […]
(§6) Inhibition of hTrk kinase activity: The activity of hTrkA and hTrkC kinase is quantitated using Pathhunter® technology (DiscoverX) as per vendor instructions.
(§7) Briefly, on the assay day, compounds for dose-response studies are serially diluted in dimethyl sulfoxide (1:3 for 10 concentrations) using an acoustic dispensing instrument Echo Access (Labcyte) and dispensed into cell plates that are subsequently incubated at room temperature (RT) for one hour. […] Pathhunter® detection reagents (DiscoverX) are added and plates are read in an ENVISION® plate reader (Perkin-Elmer) at 700 nm after 1 h incubation at RT in the dark. […]
(§8) Data Analysis: The data are converted into % Inhibition and relative IC50 values are calculated from the top-bottom range of the concentration response curve using a four-parameter logistic curve fitting program (GENEDATA SCREENER® v13.0.5) with the equation Y=Bottom+(Top-Bottom)/(1+10^((Log IC50−X)*HillSlope)). […]
Target sequence in this assay (P04629 33-796): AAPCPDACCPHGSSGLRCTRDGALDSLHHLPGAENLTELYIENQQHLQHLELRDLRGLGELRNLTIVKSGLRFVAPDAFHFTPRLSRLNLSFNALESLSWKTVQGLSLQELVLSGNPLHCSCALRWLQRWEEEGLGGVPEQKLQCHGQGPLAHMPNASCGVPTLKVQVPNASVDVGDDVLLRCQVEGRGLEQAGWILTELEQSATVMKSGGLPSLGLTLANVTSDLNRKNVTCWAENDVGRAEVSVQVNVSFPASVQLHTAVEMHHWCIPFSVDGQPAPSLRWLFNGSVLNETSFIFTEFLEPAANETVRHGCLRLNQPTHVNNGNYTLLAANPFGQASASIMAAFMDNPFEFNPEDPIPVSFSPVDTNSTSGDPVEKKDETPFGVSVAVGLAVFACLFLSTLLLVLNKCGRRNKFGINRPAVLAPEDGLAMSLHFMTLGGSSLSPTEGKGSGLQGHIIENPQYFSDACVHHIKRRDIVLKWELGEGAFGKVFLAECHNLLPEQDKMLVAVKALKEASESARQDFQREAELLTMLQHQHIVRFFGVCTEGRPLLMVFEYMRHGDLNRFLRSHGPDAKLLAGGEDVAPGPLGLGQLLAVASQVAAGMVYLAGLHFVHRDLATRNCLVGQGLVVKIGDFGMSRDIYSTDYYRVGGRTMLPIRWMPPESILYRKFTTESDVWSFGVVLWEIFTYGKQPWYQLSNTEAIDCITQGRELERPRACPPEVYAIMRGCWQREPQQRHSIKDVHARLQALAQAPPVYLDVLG

hTrkB [3] = biological target: T2, hTrkB (Homo sapiens, UniProt Q16620); assay: hTrk kinase TR-FRET assay (headed Binding Assays), hTrkB kinase domain; assay type: biochemical; set-up: hTrkB, aa: 526-838; settings: hTrkB kinase domain aa 526-838, N = 1, read-out: Relative IC50 hTrkB, Binding Assays
From the text: as §1, §2, §3
Target sequence in this assay (Q16620 510-822): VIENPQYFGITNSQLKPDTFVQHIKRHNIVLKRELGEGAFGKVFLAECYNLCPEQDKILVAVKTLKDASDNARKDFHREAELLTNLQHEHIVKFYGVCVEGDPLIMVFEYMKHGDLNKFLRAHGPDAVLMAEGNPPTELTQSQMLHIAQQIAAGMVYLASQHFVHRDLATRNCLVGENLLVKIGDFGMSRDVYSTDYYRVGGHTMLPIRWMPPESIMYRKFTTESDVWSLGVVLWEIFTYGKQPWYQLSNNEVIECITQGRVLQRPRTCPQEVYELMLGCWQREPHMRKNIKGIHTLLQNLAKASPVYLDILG

hTrkB [4] = biological target: T2, hTrkB; assay: PathHunter cell-based assay, inhibition of SH2 domain protein recruitment, hTrkB-p75 U2OS cells; set-up: host or cells: U2OS (human bone osteosarcoma epithelial cells), PathHunter hTrkB-p75
From the text: as §4, §5, §6, §7, §8
Target sequence in this assay (Q16620 32-822): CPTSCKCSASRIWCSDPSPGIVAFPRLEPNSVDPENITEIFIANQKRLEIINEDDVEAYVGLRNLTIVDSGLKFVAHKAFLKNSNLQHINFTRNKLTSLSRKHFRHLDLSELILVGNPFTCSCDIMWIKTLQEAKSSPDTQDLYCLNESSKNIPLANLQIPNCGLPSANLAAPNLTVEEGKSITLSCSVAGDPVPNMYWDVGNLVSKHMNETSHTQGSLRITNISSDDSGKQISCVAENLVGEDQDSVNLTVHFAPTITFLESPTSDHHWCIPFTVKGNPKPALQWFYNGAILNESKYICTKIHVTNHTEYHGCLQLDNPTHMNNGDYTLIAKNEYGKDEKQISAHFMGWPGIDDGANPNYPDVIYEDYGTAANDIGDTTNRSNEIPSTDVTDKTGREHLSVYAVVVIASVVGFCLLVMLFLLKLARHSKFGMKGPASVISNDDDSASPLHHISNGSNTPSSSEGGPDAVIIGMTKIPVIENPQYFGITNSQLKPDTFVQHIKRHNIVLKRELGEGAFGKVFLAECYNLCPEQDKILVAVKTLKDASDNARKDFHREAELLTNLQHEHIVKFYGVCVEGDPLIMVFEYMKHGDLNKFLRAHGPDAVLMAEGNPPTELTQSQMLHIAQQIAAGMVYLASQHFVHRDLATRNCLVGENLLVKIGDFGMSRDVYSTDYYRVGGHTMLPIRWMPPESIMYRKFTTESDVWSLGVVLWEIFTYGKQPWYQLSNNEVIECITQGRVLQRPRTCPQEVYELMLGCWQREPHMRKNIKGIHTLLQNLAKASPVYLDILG

hTrkC [5] = biological target: T3, hTrkC (Homo sapiens, UniProt Q16288); assay: hTrk kinase TR-FRET assay (headed Binding Assays), hTrkC kinase domain; assay type: biochemical; set-up: hTrkC, aa: 510-825; settings: hTrkC kinase domain aa 510-825, N = 1, read-out: Relative IC50 hTrkC, Binding Assays
From the text: as §1, §2, §3
Target sequence in this assay (Q16288 510-825 isoform Q16288-3): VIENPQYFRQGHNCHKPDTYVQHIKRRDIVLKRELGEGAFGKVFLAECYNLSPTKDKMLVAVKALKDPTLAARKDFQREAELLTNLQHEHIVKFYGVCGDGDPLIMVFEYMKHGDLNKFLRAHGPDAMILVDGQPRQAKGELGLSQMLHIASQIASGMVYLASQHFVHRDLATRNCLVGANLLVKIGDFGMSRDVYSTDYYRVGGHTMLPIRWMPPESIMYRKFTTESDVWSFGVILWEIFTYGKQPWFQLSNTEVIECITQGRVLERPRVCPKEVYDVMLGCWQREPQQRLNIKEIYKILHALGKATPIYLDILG

hTrkC [6] = biological target: T3, hTrkC; assay: PathHunter cell-based assay, inhibition of SH2 domain protein recruitment, hTrkC-p75 U2OS cells; set-up: host or cells: U2OS (human bone osteosarcoma epithelial cells), PathHunter hTrkC-p75
From the text: as §4, §5, §6, §7, §8
Target sequence in this assay (Q16288 32-839): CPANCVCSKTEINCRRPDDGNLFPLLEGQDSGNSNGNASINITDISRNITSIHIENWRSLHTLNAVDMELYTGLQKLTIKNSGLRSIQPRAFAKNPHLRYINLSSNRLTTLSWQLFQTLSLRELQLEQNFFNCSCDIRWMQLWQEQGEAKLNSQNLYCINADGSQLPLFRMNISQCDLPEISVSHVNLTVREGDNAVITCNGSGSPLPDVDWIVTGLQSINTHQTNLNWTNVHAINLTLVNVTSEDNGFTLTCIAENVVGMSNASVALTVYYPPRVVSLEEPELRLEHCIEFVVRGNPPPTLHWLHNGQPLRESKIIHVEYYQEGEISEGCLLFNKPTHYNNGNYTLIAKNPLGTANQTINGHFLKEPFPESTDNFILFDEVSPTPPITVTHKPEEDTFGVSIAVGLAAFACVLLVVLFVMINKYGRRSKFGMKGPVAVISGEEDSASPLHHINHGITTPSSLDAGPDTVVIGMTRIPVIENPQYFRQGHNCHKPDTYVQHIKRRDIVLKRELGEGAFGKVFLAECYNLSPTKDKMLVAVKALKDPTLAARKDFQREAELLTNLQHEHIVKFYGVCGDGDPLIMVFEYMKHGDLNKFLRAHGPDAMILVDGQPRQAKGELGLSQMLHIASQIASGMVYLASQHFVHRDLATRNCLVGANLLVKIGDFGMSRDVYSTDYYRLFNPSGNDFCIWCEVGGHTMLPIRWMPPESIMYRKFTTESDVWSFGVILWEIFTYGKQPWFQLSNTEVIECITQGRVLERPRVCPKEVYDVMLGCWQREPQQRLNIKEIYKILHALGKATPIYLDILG

Trk A = Trk A (Homo sapiens, UniProt P04629); assay: Trk A IC50 values listed in Table 2 of U.S. Pat. No. 9,815,846; settings: 14 divided by 0.069; phenyl ring versus pyridine ring
[7] = Table 2 comparative data, Example 1 values are the PathHunter values of Table 1, read-out: hTrkA IC50
[8] = Table 2 comparative data, Example 1 values are the PathHunter values of Table 1, read-out: hTrkB IC50
[9] = Table 2 comparative data, Example 1 values are the PathHunter values of Table 1, read-out: hTrkC IC50

Trk A, sequence (P04629 33-796, species assumed): as the sequence (P04629 33-796) above

IC50 (hTrkA [1]): 1.09 nM | IC50 (hTrkA [2]; hU2OS hTrkA-p75 cells, hNGF 27 ng/ml, N = 32, read-out: Relative IC50 hTrkA, PathHunter cell-based assay): 1.24 nM | IC50 (hTrkB [3]): > 4290 nM | IC50 (hTrkB [4]; hU2OS hTrkB-p75 cells, hBDNF 20 ng/ml, N = 25, read-out: Relative IC50 hTrkB, PathHunter cell-based assay): 6700 nM | IC50 (hTrkC [5]): 8360 nM | IC50 (hTrkC [6]; hU2OS hTrkC-p75 cells, hNT-3 29 ng/ml, N = 24, read-out: Relative IC50 hTrkC, PathHunter cell-based assay): 9010 nM
Compound: Cn1ccc(-c2cc(C(=O)Nc3cncc(C(N)=O)c3-c3ccccn3)c(F)cc2C(F)(F)F)n1 [Example 1, 5-[[2-fluoro-5-(1-methylpyrazol-3-yl)-4-(trifluoromethyl)benzoyl]amino]-4-(2-pyridyl)pyridine-3-carboxamide]

IC50 (hTrkA [2]; [7]): 1.55 nM | IC50 (hTrkB [4]; [8]): 713 nM | IC50 (hTrkC [6]; [9]): 452 nM
Compound: Cn1ccc(-c2cc(C(=O)Nc3cc(C(N)=O)cnc3-c3ccccc3)ccc2C(F)(F)F)n1 [Example 89 of US Patent No. 9815846]

IC50 (hTrkA [2]; [7]): 11.1 nM | IC50 (hTrkB [4]; [8]): > 47900 nM | IC50 (hTrkC [6]; [9]): 37800 nM
Compound: Cn1ccc(-c2cc(C(=O)Nc3cc4c(nc3-c3ccccn3)CCNC4=O)c(F)cc2C(F)(F)F)n1 [Example 141 of US Patent No. 9815846]

effect on the potency at TrkA, Example 141 IC50 divided by Example 152 IC50 (Trk A): 202.9 fold
Compound: Cn1ccc(-c2cc(C(=O)Nc3cc4c(nc3-c3ccccc3)CCNC4=O)c(F)cc2C(F)(F)F)n1 [Example 152]
